Measured values as given in publication PMC7385626 (Scientific Reports, 2020).
Several values for one entry are separate records, joined by “and”; a condition that tells them apart may be missing. Equal entries are not always repeated.

What was measured:
HT29 = test: BrdU Cell Proliferation Assay (BCPA); format: cell-based, human
From the text: (§1) The antiproliferative activities of Ag(I) molecules and the starting molecules of the parent molecules, N-bishydeten and [Ag(CN)2]^− compound, on cells, were monitored utilizing by the BrdU Cell Proliferation Assay (BCPA) (Fig. 6).
(§2) The antiproliferative activity of the 2, 3, 4, [Ag(CN)2]^− and 5FU against various cell lines (HeLa ATCC CCL-2, C6 cells ATCC CCL-107, HT29 ATCC HTB-38, and Vero ATCC CCL-81) were preserved and maintained in Dulbecco’s modified eagle’s medium, supplemented with %2 antibiotic (Streptomycin-Penicillin) solution and 10% fetal bovine serum.
(§3) The cell suspension including 5×10^3 cells in 100 µL was supplied into the well cell plates (96-well cell). The therapies of these cells with 2, 3, 4 and [Ag(CN)2]^− in DMSO (max 0.1% DMSO) and 5-Florouracil (5 FU) molecule in DMSO (max 0.1% DMSO) separately at concentration 0.25, 0.50, 1.00, 1.50, 2.00, 2.50, 3.75, and 5.00 µg/mL were carried out. The last volume was adapted to 200 µL by mixture and DMEM and also incubated for 24 h at 37°C with 5% CO2. The antiproliferative activities of the 2, 3, 4 and [Ag(CN)2]^− were determined with using BrdU Cell proliferation ELISA Kit conforming to manufacturer’s assay.
(§4) IC50 values the concentration of a factor which required for other method of in vitro.

S. enteridis ATCC13076 = test: Disc diffusion assay; format: cell-based, Salmonella Enteritidis
Procedure: (§5) Therefore, the pathogen bacterial flora and the opportunistic agents may be taken into consideration both in the management of cancer patients and in individual susceptibility to cancer. Indeed, dual acting factors with antimicrobial and antiproliferative potentials can result in improved therapeutic efficacy for cancer cell patients or reduced cancer predisposition. […]. In this study, 10 microbial cultures of this part, belonging to ten types of bacterial were used. The culture was grown in Mueller–Hinton Broth (Merck) for all the bacterial strains at 36 °C. Antimicrobial test was carried out by using disc-diffusion assay utilizing 100 µL of suspension with 10^8 CFU/mL of bacteria and 10^6 CFU/mL of yeast spread on Nutrient Agar and Potato Dextrose Agar, respectively. Also, the blank disc (Oxoid = 6 mm in diameter) was impregnated with 20 µL of each substance (105 µg/disc) and placed on the inoculated agar. Negative controls ([…]) were prepared using the same solvent (water) employed to dissolve each substance. […]. The inoculated plate was incubated at 36 °C for clinical bacterial strains. Antimicrobial activities were evaluated by obtaining the zone of inhibitory effect against the test organisms.

[1] = test system: HeLa, HT29, C6 and Vero cells; test: BrdU Cell Proliferation Assay, range over the cell lines; format: cell-based
From the text: as §1, §2, §3, §4

E. aerogenes 2924 = test: Disc diffusion assay; format: cell-based, Enterobacter Aerogenes
Procedure: as §5

Vero = test: BrdU Cell Proliferation Assay (BCPA); format: cell-based
From the text: as §1, §2, §3, §4

HeLa = test: BrdU Cell Proliferation Assay (BCPA); format: cell-based
From the text: as §1, §2, §3, §4

C6 = test: BrdU Cell Proliferation Assay (BCPA); format: cell-based
From the text: as §1, §2, §3, §4

HeLa cells = test: Cell migration assay; format: cell-based
From the text: Ag(I) compounds at 30% maximal inhibitory concentration (IC30) managed to inhibit tumor cell migration with low cytotoxicity (data not shown). In addition, this cytotoxic ability of Ag(I) compounds at 20% maximal inhibitory concentration (IC20) allowed the suppression of cell migration without damaging the cell membrane at non-toxic concentrations (data not shown). […] While untreated HeLa cells filled 100% of the gap, compounds 2, 3, and 4 managed to spread to 9%, %11, 15% of the gap, respectively (Figure S16; Supplementary Material, Day 2). In addition, the media with Ag(I) compounds were replaced with fresh media following the 72-h incubation, but the HeLa cells could not fill the gap (data not shown). […]. The result was consistent with that of the other studies on Ag(I) complexes containing different ligands[73],[74],[78],[80],[81],[83]–[87].
The migration feature of the 2, 3 and 4 was monitored using the cell migration method. Briefly, an equal number of HeLa cells (3.5 × 10^4 HeLa cells) were seeded into the two reservoirs separated by a 500 µm thick wall and allowed to grow to 90–95 % confluence. […]. The closure of the gap by the cells was photographed 0, 1 and 2 days after incubation by using a phase contrast inverted microscope.
Fig. S16. Effect of 2, 3 and 4 on the migration of HeLa cell line. […]

KpnI and BamHI = test: Inhibition of restriction endonucleases activity (pTOLT plasmid digestion); format: biochemical
Procedure: Fig. S12. […] Following 4 h 37°C digestion of the 14µL with 10U KpnI and BamHI, these digestion products were resolved with 1.5% agarose gel containing ethidium bromide. Lane 1: enzyme + DNA + complex 4, Lane 2: enzyme + DNA + complex 3, Lane 3: enzyme + DNA + complex 2, Lane 4: Positive control (enzyme + DNA), Lane 5: Negative control (plasmid DNA + water); lane 6: DNA marker (1Kb).

BSA = BSA (Bos taurus, UniProt P02769); test: UV–Visible absorption titration, BSA binding constant; set-up: species or system Bovine
From the text: UV–Visible absorption spectroscopy technique was also used to study interactions between BSA and 1–4. […] The some results of [BSA]/(εa − εf) = [BSA]/(εb − εf) + 1/[Kb(εb − εf)] in Fig. 9, used and also obtained. The binding constants for the 1–4 were found as 2.4 ± 0.22 × 10^4 M^−1, 4.3 ± 0.29 × 10^4 M^−1, 3.4 ± 0.23 × 10^4 M^−1 and 4.8 ± 0.29 × 10^4 M^−1, respectively. In Fig. 9, the increase in BSA concentrations leads to a change in the absorption of the complexes resulting in hypochromism for 1 and 3 and hyperchromism for 2 and 4.
To obtain the interaction act of the molecules with calf thymus DNA and also to determine the binding constants (Kb) UV–Visible absorption spectroscopy method was utilized. Indeed, 2.5 mg calf thymus DNA in this part was dissolved in Tris–HCl buffer and stabile pending seven days in the refrigerator. The concentration level of calf thymus DNA was calculated spectrophotometrically assay at 260 nm. This method was done according to previous studies.

B. subtilis ATCC6633 = test: Disc diffusion assay; format: cell-based, Bacillus Subtilis
Procedure: as §5

Substance	IC50 (HT29) [nM]	inhibition zones, S. enteridis ATCC13076 (S. enteridis ATCC13076) [mm]	IC50 [1] [nM]	inhibition zones, E. aerogenes 2924 (E. aerogenes 2924) [mm]	IC50 (Vero) [nM]	IC50 (HeLa) [nM]	IC50 (C6) [nM]	part of the gap filled by HeLa cells (migration) (HeLa cells) [%]	effect on restriction endonucleases activity (KpnI and BamHI digestion of pTOLT plasmid DNA) (KpnI and BamHI)	binding constant with BSA (BSA)	inhibition zones, B. subtilis ATCC6633 (B. subtilis ATCC6633) [mm]
[Cd(N-bishydeten)]4[Ag(CN)2]8[Ag(CN)]2 [Complex 4]	480 ± 80	36 ± 1.0	480 to 630	25 ± 1.0	630 ± 90	610 ± 90	600 ± 90	15	failed to inhibit the restriction endonucleases activity	4.8 ± 0.29 × 10^4 M^−1 and 4.8 x 10^4	34 ± 0.58
[Cu(N-bishydeten)Ag3(CN)5] [Complex 2]	870 ± 90	30 ± 0.58	870 to 3640	22 ± 1.0	2810 ± 320	3640 ± 420	950 ± 90	9	caused the formation of two DNA bands (Lane 3) corresponding to the supercoiled and nicked DNA	4.3 ± 0.29 × 10^4 M^−1 and 4.3 x 10^4	27 ± 0.58
[Zn(N-bishydeten)Ag3(CN)5] [Complex 3]	2370 ± 320	33 ± 0.58	2370 to 3340	20 ± 1.0	3060 ± 350	3190 ± 370	3340 ± 340	11	failed to inhibit the restriction endonucleases activity	3.4 ± 0.23 × 10^4 M^−1 and 3.4 x 10^4	31 ± 1.0
